Reference: US20220226270A1, “VERY-LONG-CHAIN POLYUNSATURATED FATTY ACIDS, ELOVANOID HYDROXYLATED DERIVATIVES, AND METHODS OF USE” (Board of Supervisors of Louisiana State University and …, priority 2019, published 2022)

Legend:
primary human RPE cells = assay: UOS-induced cell death in primary human RPE cells (Hoechst staining); assay type: cell-based; details: UOS with H2O2 (800 μM), 16 h; VLC-PUFAs 3 μM each, NPD1 200 nM; UOS alone 50% cell death
Procedure: Exposure of RPE cells to UOS and VLC-PUFA: For cell viability assay experiments hRPE cells were treated concomitantly with NPD1 (200 nM), 32-6, 34-6 (3 μM each) fatty acids or both 32-6 and 34-6 simultaneously. The hRPE medium was supplemented with 3 μM of 32-6 and 34-6 for the entire duration of the experiment. 15 lox-1 inhibitor (10 μM) was added to the cells 1 hour prior the OS induction and kept throughout the experiment. Cells were fixed with 4% PFA and stained with Hoescht.
(§1) To assess cell death, hRPE and ARPE-19 cells were fixed with methanol for 15 mins, washed with 1× PBS then loaded with 2 μM Hoechst dissolved in a Locke's solution (Promega) and incubated for another 15 mins before imaging. Cells were then viewed by using a Zeiss LSM 510 confocal microscope under UV fluorescence. Images were recorded and cell apoptosis was assessed by using an automated unbiased method.
To test the efficacy of 32:6n3 and 34:6n3 VLC-PUFAs to modulate human RPE cell homeostasis and survival rates, human RPE cells undergoing UOS were incubated with both VLC-PUFAs (3 μM each) and NPD1 (200 nM) 16 h. The addition of H2O2 (800 μM) induced apoptosis (50% cell death).
hRPE cells, formerly serum deprived for 12 h, were incubated with the 15 lipoxygenase 1 (15-LOX-1) inhibitor (PD146176) (10 μM for 1 h), then bathed with 600 μM H2O2/TNF-α in conjunction with a mixture of 32:6n3 and 34:6n3 (3 μM each) for 16 h. The 15-LOX-1 inhibitor sensitizes cells; therefore, a lower concentration of H2O2 than in the cytoprotection experiment was used.

ARPE-19 cells under UOS = assay: Western blot of pro-survival and pro-apoptotic proteins in ARPE-19 cells under UOS; assay type: cell-based, human; details: for Bax protein / Bid protein / Bim protein: Western blot, UOS; for Prohibitin (type-1) expression (ELV): sodium salts and methyl ester forms, concentration-dependent, 100-200 nM; for effect of 15-LOX-1 inhibitor on VLC-PUFA-induced Iduna expression: FIG. 7D
Procedure: (§2) ARPE19 cells at 75-80% confluence (72 h growth in DMEM/F12+10% FBS) in 6-well plates were serum-starved for 8 h before exposure. The serum-starved cells were treated with TNF-α (Sigma-Aldrich, St. Louis, Mo.) (10 ng/ml) and H2O2 (600 μM) to induce oxidative stress and challenged with increasing concentrations (50-500 nM) of VLC-PUFA (C32:6n3 and C34:6n3) simultaneously with oxidative stress for 16 h (apoptosis) and 6 h (Western-blot) before detection of apoptosis and harvesting for protein analysis. In some experiments, DHA at a concentration of 100 nM and 15-LOX-1 inhibitor PD146176 at a concentration of 1 μM was added to treat the RPE cells under stress. Cell extracts were made and protein concentrations adjusted by Bio-Rad (Hercules, Calif.) protein reagent and used for Western blot analysis.
Analysis of Proteins: Bcl-2 family proteins, SIRT1 and Proinhibitin (type-1), and Iduna proteins were analyze by Western blot analysis. In brief, 20-25 μg equivalents of each cell extracts were subject to electrophoresis on a 4-12% gel (Promega) at 125 V for 2 h. The proteins were transferred to nitrocellulose membrane by I-blot transfer apparatus. The membranes were subjected to treatment with primary antibodies specific for Bcl-2, Bcl-xL, Bax, Bid, Bim, SIRT1 and Prohibitin (type-1) (Santa Cruz Biotechnology) and Iduna antibody (Neuro-Mab Lab, UCLA, Los Angeles, Calif.) overnight at 4° C. and probed for 45 mins with secondary antibody, goat anti-mouse Ig:horseradish peroxidase, and horseradish peroxidase-conjugated anti-biotin antibody, and then proteins were evaluated by using an ECL kit (Amersham).

[1] = test system: cerebral cortical mixed neuronal cells; assay: NMDA excitotoxicity in cerebral cortical mixed neuronal cultures; assay type: cell-based, rat; details: for NMDA-induced neuronal death: NMDA 25, 50 or 100 μM for 12 h, ELV (Na or Me) 200 nM or 500 nM added simultaneously
Description: Primary cultures of cortical neurons: Primary cultures of cortical and hippocampal neurons were harvested from 18-day-old embryos (E18) taken from timed-pregnant, two-month-old Sprague-Dawley (SD) rats (Charles River Lab., Wilmington, Mass.). Briefly, timed-pregnant SD rats were euthanized and embryos were collected in sterile conditions. Embryonic brains were dissected out by forceps on ice and placed in a petri dish containing ice-cold Hank's Balanced Salt Solution (HBSS) (GIBCO). Meninges were removed under a dissecting microscope and cortical tissues were chopped into small pieces with micro-spring scissors. These tissues were transferred to 15 ml tubes containing trypsin-EDTA (0.025% in HBSS) and DNase I. The tubes were incubated in 37° C. chamber for 15 mins and were agitated every 5 mins. After stopping the trypsinization with 5 ml 10% FBS, these tissues were triturated 15 times with a fire polished Pasteur pipet. Cell clumps were left to settle for 2 mins and the supernatant was transferred to a 15 ml Eppendorf tube. The supernatant was filtered through a 70 μm pore-sized filter (Corning cell strainer) and centrifuged for 5 mins at 1000 rpm. The cells were then resuspended in Neurobasal medium (GIBCO) containing 2% B27 (GIBCO) and 2% N2 (GIBCO) supplements, along with 0.5 mM glutamine, 50 U/ml penicillin/streptomycin.
Cells were counted using a Neubauer hemocytometer. 1×10^6 cells were seeded on poly-D-lysine-coated 12 well cell culture dish (CORNING) and cultured in incubator (37° C., 5% CO2). Culture medium was first replaced after 24 h, then half of the medium was replaced with fresh medium every three days. As a result, approximately, 90% purity of neurons was obtained as determined by class-III-β tubulin, GFAP and Hoechst 33258 staining. Cells were maintained in culture for about 2 weeks until they were exposed to uncompensated oxidative stress, OGD, or NMDA excitotoxicity.
After 90 mins of OGD exposure, cells were returned to the original medium (Neurobasal medium (GIBCO) containing 2% B27 (GIBCO) and 2% N2 (GIBCO) supplements, along with 0.5 mM glutamine, 50 U/ml penicillin/streptomycin) and placed in a normoxic chamber (37° C., 5% CO2) for 2 h. Then the medium was changed with medium containing either ELV-N32 or ELV-N34 [500 nM] and maintained in a normoxic chamber (37° C., 5% CO2) for 12 h, after which cells were sampled and assayed for cell viability using different methods as previously described (25-28). Cerebral cortical mixed neuronal cells or hippocampal cells in culture were exposed to either NMDA or uncompensated oxidative stress (UOS) for 12 h by addition of either NMDA (25 μM, 50 μM, or 100 μM) concentration or by the addition of TNFα (10 ng/mL) and H2O2 (50 μM, 100 μM, or 200 μM). Cell viability and neuroprotection in the presence of ELV-N32, ELV-N34, 32:6, or 34:6 were assayed after 12 h.
Hoechst staining and unbiased image analysis: Cells were washed with 1× Dulbecco's Phosphate Buffered Saline (DPBS) containing no calcium or magnesium (GIBCO) and fixed for 10 mins using ice-cold 4% paraformaldehyde (PFA) followed by 15 mins incubation in 100% methanol. Cells were washed with 1× Phosphate Buffered Saline (PBS) pH 7.4 (GIBCO) and incubated in PBS containing 20 μM Hoechst 33258 (Molecular Probes) for 20 mins. Cells were then washed 3 times with 1× PBS and stored in 1× PBS at 4° C. until they were imaged for microscopy.
One 4×4 tile mosaic was acquired from the center of each well using a Zeiss 510 Meta laser confocal microscope and LSM 510 Meta software. Images were imported into image analysis software ImageJ (National Institutes of Health, Bethesda, Md.) and batch processed using custom macros. An Otsu auto threshold was applied to each image of Hoechst-stained nuclei, and the area of each detected object was recorded. Objects with areas <10 μm^2 were excluded from analysis. To estimate percentage non-pyknotic nuclei, a size cutoff value was chosen above which objects were assumed to be non-pyknotic. […]

[2] = test system: mice sub-retinally injected with OAβ; assay: Oligomeric Aβ (OAβ)-induced RPE senescence and retinal degeneration, sub-retinal injection; assay type: in vivo, mouse; details: 200 ng co-injected with 10 μM OAβ, 2 μl sub-retinal
Description: As shown in FIGS. 14A-14C, elovanoids (ELV) counteract AR peptide-induced retinal pigment epithelial cell senescence progression. Aβ42, an end product of the amyloidogenic pathway, is a component of drusen in age-related macular degeneration (AMD), and of senile plaques in Alzheimer's disease (AD). To mimic the effect of OAβ in vivo, 6-month-old mice were used and sub-retinally injected with OAβ alone, OAβ+ELVs and ELVs alone. The no injection mice were used as negative control while the PBS injected mice were used as the sham. The injection volume was 2 μl containing of PBS, 10 μM of OAβ, 10 μM of OAβ+200 ng ELV-32, 200 ng ELV-32 alone, 10 μM of OAβ+200 ng ELV-34 or 200 ng ELV-34 alone. At day 3 after injection, mRNA from eyecup was isolated and analyzed the gene expression using q-PCR. Then, at day 7, the mice were subjected to Optical Coherence Tomography (OCT) analysis and then the eyes were enucleated and processed for histology, whole mount RPE staining, and western blotting (WB). OCT and histology uncovers that in OAβ induced retinal degeneration, the thickness of retina was thinner in OAβ injected group when compared to the controls as well as ELVs treatment groups.

ARPE-19 cells = assay: UOS-induced apoptosis in ARPE-19 cells (Hoechst-positive pyknotic cells); assay type: cell-based, human; details: inhibitor 1 μM, RPE cells undergoing UOS
Procedure: as §2, §1

Q: `CC/C=C\C[C@H](O)\C=C/C=C/C=C/[C@H](O)C/C=C\C/C=C\CCC(=O)O` [NPD1, 10R,17S-dihydroxy-docosa-4Z,7Z,11E,13E,15Z,19Z-hexaenoic acid, reference compound] was tested. Which “cell death (apoptosis)” value (primary human RPE cells) did it give?
A: 11%

Q: `CC/C=C\C[C@H](O)\C=C/C=C/C=C/[C@H](O)C/C=C\C/C=C\CCCCCCCCCCCCC(=O)O` [ELV-N32, (14Z,17Z,20R,21E,23E,25Z,27S,29Z)-20,27-dihydroxydo-triaconta-14,17,21,23,25,29-hexaenoic acid] was tested. Which Bax protein (ARPE-19 cells under UOS) did it give?
A: decreased

Q: What about the Bid protein (ARPE-19 cells under UOS) of the same molecule?
A: decreased

Q: And the Bim protein (ARPE-19 cells under UOS)?
A: decreased

Q: And the “Prohibitin (type-1) expression (ELV)” value (ARPE-19 cells under UOS)?
A: upregulated

Q: What about the NMDA-induced neuronal death [1] of the same molecule?
A: compensated for

Q: What about the “protection of RPE and retina from OAβ induced senescence” value [2] of the same molecule?
A: protect RPE and retina

Q: Which results are given for `CC/C=C\C[C@H](O)\C=C/C=C/C=C/[C@H](O)C/C=C\C/C=C\CCCCCCCCCCCCCCC(=O)O` [ELV-N34, (16Z,19Z,22R,23E,25E,27Z, 29S,31Z)-22,29-dihydroxytetra-triaconta-16,19,23,25,27,31-hexaenoic acid]?
A: Bax protein (ARPE-19 cells under UOS): decreased; Bid protein (ARPE-19 cells under UOS): decreased; Bim protein (ARPE-19 cells under UOS): decreased; Prohibitin (type-1) expression (ELV) (ARPE-19 cells under UOS): upregulated; NMDA-induced neuronal death [1]: compensated for; protection of RPE and retina from OAβ induced senescence [2]: protect RPE and retina

Q: Which NMDA excitotoxicity ([1]; 10 μM antagonist) does the source give for MK801 maleate [reference compound] here?
A: overcome

Q: What does the source list for `c1ccc2c(c1)SCc1c-2[nH]c2ccccc12` [PD146176, reference compound]?
A: effect of 15-LOX-1 inhibitor on ELV-mediated inhibition of apoptosis (ARPE-19 cells): compensate for ELV-mediated inhibition of apoptosis; SIRT1 expression with VLC-PUFA in the presence of 15-LOX-1 inhibitor (ARPE-19 cells under UOS; FIG. 7C): augmented; effect of 15-LOX-1 inhibitor on VLC-PUFA-induced Iduna expression (ARPE-19 cells under UOS): attenuates; effect of 15-LOX-1 inhibitor on VLC-PUFA-induced Iduna expression (ARPE-19 cells under UOS; listed as 15-LOX-1 inhibitor): unaffected; effect of 15-LOX-1 inhibitor on ELV-induced protein upregulation (Iduna) (ARPE-19 cells under UOS; inhibitor 1 μM): blocked these effects
